Results on six molecules are retold here after PMC7573271, “Structural characterization of anti-CCL5 activity of the tick salivary protein evasin-4” (The Journal of Biological Chemistry, 2020).

The target of data set [1] is T1, human CCL5 (Homo sapiens, UniProt P13501).
T1 sequence (P13501 24-91): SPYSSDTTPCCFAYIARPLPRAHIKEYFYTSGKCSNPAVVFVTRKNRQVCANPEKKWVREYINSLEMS
Description: Fluorescence anisotropy titration of 5(6)-Fam-labeled peptides by CCL5. The conditions noted are these: 100 nM 5(6)-Fam-labeled peptide, HEPES pH 7.4, 37 °C; for effect of CCL5 addition on fluorescence anisotropy / affinity in words: CCL5 up to 500 nM. It counts as binding. From the text:
To assess this hypothesis, two peptides taken from the Evasin-4 sequence were synthesized by Boc-based solid-phase peptide synthesis (Figs. S8 and S9). The first peptide, Ev4 Glu^14–Ala^23, comprises the Glu^14–Ala^23 residues of Evasin-4, whereas the second one, Ev4 Glu^14–Asn^31, includes the longer region Glu^14–Asn^31 (Fig. 4C). Cys^27 in the Ev4 Glu^14–Asn^31 was mutated to alanine to prevent oxidation and formation of intermolecular disulfide bonds. Affinity of obtained peptides to CCL5 was studied by fluorescence anisotropy using 100 nM of 5(6)-Fam–labeled peptides and human CCL5.
Fluorescence polarization assays were carried out using FluoroMax 4 fluorimeter (Horiba) equipped with FM4-2000 polarizers in 3-ml cuvettes. 100 nM solution of 5(6)-Fam–labeled peptides in HEPES buffer pH 7.4 were titrated by a 30 μM stock solution of CCL5 at 37 °C. Fluorescent signal was measured using 495 and 520 nm as excitation and emission wavelengths. The final titration curve is a result of three or four independent measurements.
For orientation: Polarisation of emitted light reports the rotation of a fluorescent probe.

Data set [2] deals with E66S CCL5. In words: NMR titration of 15N E66S CCL5 by Ev4 Glu14-Asn31. It counts as binding. The conditions noted are these: 25 mM acetate. Here is the method: In the case of E66S CCL5/Ev4 Glu^14–Asn^31 complex, 25 μM of ^15N E66S CCL5 in 25 mM acetate buffer, pH 4.5, was titrated by increasing concentrations of Ev4 Glu^14–Asn^31. For each concentration ^15N-^1H HSQC was recorded. Backbone resonance assignments were derived by following the shift of peak positions.

Data set [3] is described as follows: Solubility/precipitation observed in NMR and crystallization sample preparation.
Description: For NMR sample preparation, lyophilized proteins were dissolved in 25 mM phosphate buffer (pH 6.8–7.1) or 25 mM sodium acetate-d^3 buffer (pH 4.5) containing 0.1 mM EDTA, 0.2 mM sodium azide, 5% (v/v) D2O for deuterium lock, at final concentration of 50 μM for m–t-Evasin-4 and 82, 20, and 1 μM for E66S CCL5. The samples were buffer exchanged four or five times by ultracentrifugation using prewashed Amicon Ultra-3000 3-kDa (Millipore, USA) ultracentrifugation filters. Final NMR samples were prepared in 3- or 5-mm NMR tubes, containing traces of DSS for chemical shift calibration. All NMR spectra were recorded using a Bruker Avance III HD 700 MHz spectrometer, equipped with a cryogenically cooled TCI probe at 37 °C. To make the complex, equimolar amounts of unlabeled met–Evasin-4 or E66S CCL5 were titrated to their [^15N,^13C]-enriched complement samples. For met–Evasin-4 and the two complexes, the solution pH of the NMR sample was carefully adjusted to pH 7.1 to ensure stable, nonprecipitating solutions.
The test system of data set [4] is CCL5-induced THP-1 cell migration. In words: THP-1 monocytic cell migration assay toward CCL5. The class given is cell-based, human. The conditions noted are these: CCL5 0.5 µg/ml. The protocol:
Human acute monocytic leukemia cell line (THP-1) monocytic cells were purchased from Leibniz-Institut DSMZ (ACC 16). The cells were cultured in RPMI 1640 GlutaMAX medium supplemented with 20 % fetal calf serum and 1 % penicillin/streptomycin (all Gibco ThermoFisher). The cells were cultured in a humidified atmosphere (5 % CO2, 95 % air, 37 °C) and routinely passed by splitting the cells (1:10) to fresh medium. The migration of monocytic cells toward chemoattractants was assessed in a 12-well chemotaxis chamber equipped with a 5-μm polycarbonate membrane (both Neuroprobe, Gaithersburg, MD, USA). Chemoattractants CCL5 (0.5 µg/ml) or CXCL4 (0.5 µg/ml) were preincubated with met–Evasin-4 (1 µg/ml) for 2 h at 37 °C subsequently added to the bottom well of the chemotaxis chamber. THP-1 monocytic cells (1 × 10^6/ml), suspended in RPMI 1640 GlutaMAX medium supplemented with 1 % fetal calf serum, were added in the upper wells and incubated for 90 min at 37 °C in a humidified atmosphere (5 % CO2, 95 % air). The nonmigrated cells were carefully removed, and the membrane was stained with Diff-Quick stain (Eberhard Lehmann GmbH, Berlin, Germany). Migrated cells were visualized by light microscopy, counted manually in five fields, and expressed as cells/mm^2.

The nature of data set [5]: NMR analysis of E66S CCL5 monomer/dimer equilibria. It counts as physicochemical. The conditions noted are these: pH 4.5, 37 °C. The protocol: To study the structural determinants of E66S CCL5 involved in Evasin-4 binding, NMR spectra were recorded for the [^15N,^13C]E66S CCL5–Evasin-4 complex. Initial ^15N-^1H HSQC spectra of [^15N,^13C]E66S CCL5 were recorded at pH 4.5 and 37 °C at concentrations of 1 and 20 μM. […] This observation goes in line with the obtained crystal structure because the E66S CCL5 dimer interface is formed by interactions of the N terminus with the 30s loop and β3-strand.

For data set [6] the following is noted: physiological pH; cited from earlier work. The protocol: (§1) CCL5 can oligomerize, forming dimers and oligomers of a higher order ([16]), which would complicate analysis of Evasin-4 binding. […] To address this question, surface plasmon resonance (SPR) biosensor analysis was performed with biotinylated Eva ...
The subject of data set [7] is Evasin-4. The conditions noted are these: cited from earlier work. Here is the method: as §1
In data set [8] the test system is CCL18. The conditions noted are these: cited from earlier work. From the text:
(§2) Disruption of the chemokine signaling system is one of the crucial parts of ticks' strategy to evade immune responses. To neutralize chemokines, ticks secrete small cysteine-rich chemokine-binding proteins in their saliva with no homologues in mammals, termed Evasins ([6]). Evasins can be divided into two structurally unrelated C6 or C8 subfamilies embodying six and eight cysteines, respectively ([6]). […] Although several hundred of putative C6- and C8-Evasins have been identified in tic ...

For data set [9], the system named is CCL4. The conditions noted are these: cited from earlier work.
From the text: as §2

The subject of data set [10] is CCL3. The conditions noted are these: cited from earlier work. From the text:
Disruption of the chemokine signaling system is one of the crucial parts of ticks' strategy to evade immune responses. To neutralize chemokines, ticks secrete small cysteine-rich chemokine-binding proteins in their saliva with no homologues in mammals, termed Evasins ([6]). Evasins can be divided into two structurally unrelated C6 or C8 subfamilies embodying six and eight cysteines, respectively ([6]). […] In fact, the N terminus of C8-Evasins seems to play a crucial role in chemokine binding. For instance, replacement of the N terminus of Evasin-1 by that of P672, another C8-Evasin with different chemokine selectivity, produced a chim ...

Substitutions are numbered along the chain they refer to. In names and notes the source's numbering stands. Entries after “also recorded” stand apart in the source; their conditions may differ. Read-outs that look alike come from different tables or passages of the source.

Consider “H-EEEDDYTAYA-NH2 [Ev4 Glu^14–Ala^23, peptide comprising the Glu14–Ala23 residues of Evasin-4]”, for which, in [1], the “effect of CCL5 addition on fluorescence anisotropy / affinity in words” value is reported as “no effect even at concentration of 500 nM”. Further, in data set [1] (fluorescence anisotropy), the “affinity to CCL5” value is recorded as “no affinity to CCL5”.

“H-EEEDDYTAYAPLTAYFTN-NH2 [Ev4 Glu^14–Asn^31, H2N-EEEDDYTAYAPLTAYFTN-CONH2]”: the “effect of peptide titration on E66S CCL5 signals” value in [2] (25 μM [15N]E66S CCL5, increasing concentrations of peptide, pH 4.5) was “binds the CCL5 monomer; also recorded: gradual shift of signals of monomeric E66S CCL5 and decrease of signal intensity for the dimeric form; also recorded: only CCL5 monomer signals are affected upon binding”. In addition, the “most perturbed residues of E66S CCL5 by peptide binding” value in [2] (25 μM [15N]E66S CCL5 monomer form, before and after 500 μM Ev4 Glu14-Asn31, pH 4.5, 37 °C) was “N-loop (Phe^12–Arg^21 and His^23) and in the β3-strand (Gln^48 and Cys^50)”. For the same molecule, the “solubility of peptide” value in [3] (low pH values, negatively charged residues) was “poorly soluble at low pH values”. Also, the “solubility of complex with E66S CCL5” value in data set [3] (peptide/E66S CCL5 complex compared with E66S CCL5-Evasin-4 complex) is reported as “more soluble compared with the E66S CCL5–Evasin-4 complex”. Moreover, in data set [1], the “effect of CCL5 addition on fluorescence anisotropy / affinity in words” value was “dose-dependent increase of fluorescence anisotropy”. Besides, the “affinity to CCL5” value in data set [1] (fluorescence anisotropy) is given as “nanomolar affinity to CCL5; also recorded: binds CCL5 with nanomolar affinity”. Moreover, the Kd in data set [1] (fluorescence anisotropy, titrated by 30 μM stock of CCL5, ex 495/em 520 nm, three or four independent measurements, read-out: apparent KD) amounted to 69 ± 12 nM. Moreover, the “required inhibitory concentrations compared with full-length Evasin-4” value in data set [4] (CCL5-induced THP-1 migration, compared with full-length protein) was “the required concentrations were higher compared with the full-length protein”. The “concentration at which full inhibition of CCL5-induced THP-1 migration was reached” value in [4] (full inhibition only at this concentration, 1 × 10^6 cells/ml, 90 min, 37 °C) was 10 µM. In [4] (increasing concentrations of Ev4 Glu14-Asn31, 1 × 10^6 cells/ml, 90 min, 37 °C), the “inhibition of CCL5-induced THP-1 migration” value is given as “dose-dependent inhibition of CCL5-induced THP-1 cell migration; also recorded: effectively inhibits CCL5-induced monocyte migration; also recorded: blocks CCL5-induced monocyte migration”.

B1: E66S CCL5: CCL5 mutant that mainly forms dimers at physiological pH (protein, UniProt P13501 24-91, looked up, variant E66S)
C-C motif chemokine 5: T1 sequence (P13501 24-91) with E66S
Regarding B1, the “oligomeric form” value is “monomeric form” in [5] (1 μM E66S CCL5, 15N-1H HSQC); “monomeric and dimeric form” in data set [5] (20 μM E66S CCL5, 15N-1H HSQC, two sets of signals); “mainly forms dimers” in data set [6].

B2: CCL5: chemokine CC-motif ligand 5, also known as RANTES (protein, UniProt P13501 24-91, looked up)
C-C motif chemokine 5: T1 sequence (P13501 24-91)
B2: the “induction of THP-1 migration” value in data set [4] (compared with control in the absence of chemoattractants, 90 min, 37 °C) is given as “induced significant migration of THP-1 cells”.

B3: E66A CCL5: CCL5 mutant with deficiency in oligomerization (ref 25) (protein, UniProt P13501 24-91, looked up, variant E66A)
C-C motif chemokine 5: T1 sequence (P13501 24-91) with E66A
For B3, in data set [7], the “oligomerization and Evasin-4 inhibition potency” value is listed as “deficiency in oligomerization without disturbing Evasin-4 inhibition potency”.

B4: Evasin-1: 94–amino acid protein from the C8 subfamily, from Rhipicephalus sanguineus (protein, UniProt P0C8E7 21-114, looked up)
Evasin-1: EDDEDYGDLGGCPFLVAENKTGYPTIVACKQDCNGTTETAPNGTRCFSIGDEGLRRMTANLPYDCPLGQCSNGDCIPKETYEVCYRRNWRDKKN
As for B4, the affinity in words entry in data set [8], in [9] and in data set [10] was “high-affinity binder” in each case.
